Laboratory results: US8557859B2, “Immunomodulatory compositions” (Summit (Wales) Limited, priority 2003, dated 2013)
Like-named read-outs stand apart in the source and are kept apart here.

What was measured:
α-D-glucosidase [1] = experiment: Glycosidase inhibition, α-D-glucosidase (Bacillus); format: biochemical, Bacillus stearothermophilus; conditions: 1 mg/ml
Protocol: (§1) All enzymes were purchased from Sigma, as were the appropriate p-nitrophenyl substrates. Assays were carried out in microtitre plates. Enzymes were assayed in 0.1 M citric acid/0.2M di-sodium hydrogen phosphate (McIlvaine) buffers at the optimum pH for the enzyme. All assays were carried out at 20° C. For screening assays the incubation assay consisted of 10 μl of enzyme solution, 10 μl of inhibitor solution (made up in water) and 50 μl of the appropriate 5 mM p-nitrophenyl substrate (3.57 mM final conc.) made up in McIlvaine buffer at the optimum pH for the enzyme.
(§2) The reactions were stopped with 0.4M glycine (pH 10.4) during the exponential phase of the reaction, which was determined at the beginning of the assay using blanks with water, which were incubated for a range of time periods to measure the reaction rate using 5 mM substrate solution. Endpoint absorbances were read at 405 nm with a Biorad microtitre plate reader (Benchmark). Water was substituted for the inhibitors in the blanks.

Dendritic cells [2] = experiment: Induction of IL-12 secretion in dendritic cells (ELISA); format: cell-based, BALB/c mice; conditions: for IL-12 RELEASE: dendritic cells, compounds 50 μg/ml and 20 μg/ml, 24 hrs (or 48 hrs)
Protocol: BALB/c male and female mice bred and maintained at the University of Strathclyde under conventional conditions were used at 8 weeks old.
Bone marrow was obtained from the femurs of mice. The femurs were washed in 70% ethanol and placed in a clean petri dish. Dendritic cell (DC) medium (2.5% granulocyte-macrophage colony-stimulating factor (GM-CSF), 10% […] foetal calf serum, 1% L-glutamine, 1% Penicillin/Streptomycin in RPMI-1640 medium) was injected into the bone marrow of the femur by a pumping action and the cells and medium were collected. 1 ml of the cells in medium was added to a 75 cm^2 flask with 15 mls of DC medium. The flasks were then incubated at 37° C., 5% CO2 to allow DC growth and development. After 5 days an additional 10 mls of DC medium was added.
After 10 days of incubation of bone marrow with GM-CSF, the dendritic cells were harvested. This process was carried out in a tissue culture hood. The contents of the flasks were poured into centrifuge tubes to ensure collection of floating DCs. Approximately 10 mls of cooled phosphate buffered saline (PBS) was added to each empty flask, the flasks gently agitated and the contents collected. […] The collected contents of the flasks were centrifuged for 5 minutes at 200 g and the pellet resuspended in 2 mls of DC medium without GM-CSF. A cell count was then carried out.
Cells were counted using a haemocytometer. Approximately 20 μl of the resuspended cells was pipetted into the chamber of the haemocytometer, the cells were adjusted to the correct cell concentration (approx. 5×10^4, and not less than 1×10^4, per well) and then plated out for assay.
The plates were incubated overnight at 37° C. with 5% CO2 and allowed to settle (harvesting stimulates them). The next day the compounds (50 μg/ml and 20 μg/ml) and controls were added then again incubated at 37° C. with 5% CO2 for 24 hrs (or 48 hrs). Harvesting and addition of the compounds was all done in a hood. The plates were then frozen to kill the cells and once defrosted the supernatant analysed as described below.
Using an enzyme linked immunosorbent assay (ELISA) IL-12 concentration in the supernatants was measured. All reagents used in this assay were from PharMingen. A 96-well flat-bottomed ELISA plate was coated with purified rat anti-mouse IL-12 (p40/p70) MAb (Cat no. 554478) at 2 μg/ml diluted in PBS pH 9.0 at 50 μl/well. The plate was then covered in cling film and incubated at 4° C. Following incubation the plate was washed 3 times in washing buffer and dried. 200 μl of blocking buffer (10% foetal calf serum in PBS pH 7.0) was added to each well then covered in cling film and incubated at 37° C. for 45 minutes. The plate was washed 3 times and dried. Recombinant mouse Il-12 standard was added at 30 μl in duplicate wells, starting at 10 ng/ml then 5, 2.5, 1.25, 0.625, 0.31, 0.156, 0.078, 0.039, 0.020, 0.010, 0.005 ng/ml. Standards were diluted in blocking buffer. The supernatant samples were added in at 50 μl/well. The plate was then covered in cling film and incubated for 2 hours at 37° C. The plate was then washed 4 times, dried and the secondary antibody added.
Biotin labelled anti-mouse IL-12 (p40/p70) MAb (Cat no. 18482D) at 1 μg/ml (diluted in blocking buffer) was added to each well at a volume of 100 μl/well. The plate was covered in cling film and incubated at 37° C. for 1 hour. The plate was then washed 5 times, dried and the conjugate added. Streptavidin-AKP (Cat no. 13043E) at 100 μl/well was added at a dilution of 1/2000 in blocking buffer followed by incubation under cling film at 37° C. for 45 minutes.
The plate was finally washed 6 times, dried and the substrate added. pNPP (Sigma) in glycine buffer at 1 mg/ml was added at 100 μl/well. The plate was then covered in tinfoil, incubated at 37° C. and checked every 30 minutes for a colour change.
The plate was then read at 405 nm using a SPECTRAmax 190 spectrometer.

Naringinase = experiment: Glycosidase inhibition, Naringinase; format: biochemical, Penecillium decumbens; conditions: 1 mg/ml
Protocol: as §1, §2

[3] = tested on: spleen cells from Leishmania major infected BALB/c mice; experiment: Non-healing leishmaniasis model: splenocyte IFN-γ; format: cell-based; conditions: for IFN-γ: Table 10.1
[4] = tested on: spleen cells from Leishmania major infected BALB/c mice; experiment: Non-healing leishmaniasis model: splenocyte IL-5; format: cell-based
Dendritic cells [5] = format: cell-based, BALB/c mice
Protocol: Bone marrow was obtained from the femurs of mice. The femurs were washed in 70% ethanol and placed in a clean petri dish. Dendritic cell (DC) medium (2.5% granulocyte-macrophage colony-stimulating factor (GM-CSF), 10% heat and activated foetal calf serum, 1% L-glutamine, 1% Penicillin/Streptomycin in RPMI-1640 medium) was injected into the bone marrow of the femur by a pumping action and the cells and medium were collected. 1 ml of the cells in medium was added to a 75 cm^2 flask with 15 mls of DC medium. The flasks were then incubated at 37° C., 5% CO2 to allow DC growth and development. After 5 days an additional 10 mls of DC medium was added.
After 10 days of incubation of bone marrow with GM-CSF, the dendritic cells were harvested. This process was carried out in a tissue culture hood. The contents of the flasks were poured into centrifuge tubes to ensure collection of floating DCs. Approximately 10 mls of cooled phosphate buffered saline (PBS) was added to each empty flask, the flasks gently agitated and the contents collected. This ensured recovery of adhesive DCs. […]
Cells were counted using a haemocytometer. […]
The plates were incubated overnight at 37° C. with 5% CO2 and allowed to settle (harvesting stimulates them). […] The plates were then frozen to kill the cells and once defrosted the supernatant analysed as described below.

β-D-glucosidase = experiment: Glycosidase inhibition, β-D-glucosidase; format: biochemical, Almonds (Prunus sp.); conditions: for % inhibition glucosidase: 1 mg/ml
Protocol: as §1, §2

[6] = tested on: glycosidase enzymes of Table 4.1; experiment: Glycosidase inhibition, all enzymes tested (Table 4.1); format: biochemical; conditions: 1 mg/ml; result in words
Protocol: as §1, §2

Spleen cells = experiment: Cytokine modulation in spleen cells: splenocyte IFN-γ production; format: cell-based, BALB/c mice; conditions: for IFN-γ: splenocytes
Protocol: BALB/c male and female mice bred and maintained at the University of Strathclyde under conventional conditions were used at varying age.
The mouse spleen was removed aseptically and placed in a sterile petri dish containing 5 mls of complete medium (RPMI, 1% L-Glutamine, 1% Penicillin/Streptomycin and 10% foetal calf serum). Cells suspensions were prepared by using the end of a syringe and grinding the spleen through a wire mesh. The cell suspension was then centrifuged at 1000 rpm for 5 minutes. To remove the erythrocytes, the cell pellet was resuspended in Boyle's solution (Tris 0.17M & Ammonium Chloride 0.16M) and centrifuged again for 5 minutes. The pellet was then washed in medium a further two times, then resuspended in 3 mls medium. A cell count was then carried out.
All spleen cell experiments were carried out in 96-well tissue culture plates. […] Unstimulated wells contained 100 μl of cells and 100 μl of medium. The stimulated wells contained 100 μl of cells plus 50 μl of LPS at 1 μg/ml or 50 μl anti-CD3 at 0.5 μg/ml and 50 μl of medium. The remaining wells contained 100 μl cells, 50 μl of MNLP compound and either 50 μl of anti-CD3 or medium alone.
The appropriate Mabs and standards were used according to the protocol described for IL-12 (described in Example 1, above).

[7] = tested on: N-acetyl-β-D-glucosaminidase; experiment: Glycosidase inhibition, N-acetyl-β-D-glucosaminidase; format: biochemical, Bovine kidney; conditions: 1 mg/ml
Protocol: as §1, §2

[8] = target: rabbit gut mucosa α-D-glucosidase; experiment: Inhibition of rabbit gut mucosa α-D-glucosidase; format: biochemical
[9] = tested on: Na^+-dependent D-glucose uptake into ovine intestinal brush border membrane vesicles; experiment: Effect on glucose transport (competition assay with labelled D-glucose); format: biochemical
β-D-galactosidase = experiment: Glycosidase inhibition, β-D-galactosidase; format: biochemical, Bovine liver; conditions: 1 mg/ml; second galactosidase line
Protocol: as §1, §2

α-D-glucosidase [10] = target: T1, α-D-glucosidase (Saccharomyces cerevisiae, UniProt P53341); experiment: Glycosidase inhibition, α-D-glucosidase (yeast); format: biochemical, Saccharomyces cerevisiae (Baker's yeast); conditions: at a concentration of 800 μM
T1 construct: purchased Sigma
T1 sequence (P53341 whole entry): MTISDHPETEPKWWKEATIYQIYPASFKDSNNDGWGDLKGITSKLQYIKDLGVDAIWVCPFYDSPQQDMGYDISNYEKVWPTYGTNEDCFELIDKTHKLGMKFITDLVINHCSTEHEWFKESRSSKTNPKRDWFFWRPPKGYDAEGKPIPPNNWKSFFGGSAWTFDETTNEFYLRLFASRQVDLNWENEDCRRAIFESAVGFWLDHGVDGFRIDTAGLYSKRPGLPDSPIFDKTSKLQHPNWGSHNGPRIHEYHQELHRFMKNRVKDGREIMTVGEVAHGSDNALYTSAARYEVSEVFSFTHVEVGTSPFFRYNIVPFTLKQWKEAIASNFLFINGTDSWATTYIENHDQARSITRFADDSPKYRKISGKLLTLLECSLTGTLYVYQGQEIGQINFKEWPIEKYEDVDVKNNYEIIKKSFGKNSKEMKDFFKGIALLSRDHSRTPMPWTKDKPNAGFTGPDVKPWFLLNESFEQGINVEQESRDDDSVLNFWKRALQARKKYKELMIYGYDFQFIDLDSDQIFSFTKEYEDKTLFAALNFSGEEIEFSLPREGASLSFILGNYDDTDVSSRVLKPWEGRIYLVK
Protocol: as §1, §2

[11] = target: T2, rabbit small intestine sucrase (Oryctolagus cuniculus, UniProt P07768); experiment: Inhibition of rabbit small intestine sucrase; format: biochemical; conditions: at a concentration of 700 μM
T2 construct: from tissue; host or cells: rabbit small intestine
T2 sequence (P07768 whole entry): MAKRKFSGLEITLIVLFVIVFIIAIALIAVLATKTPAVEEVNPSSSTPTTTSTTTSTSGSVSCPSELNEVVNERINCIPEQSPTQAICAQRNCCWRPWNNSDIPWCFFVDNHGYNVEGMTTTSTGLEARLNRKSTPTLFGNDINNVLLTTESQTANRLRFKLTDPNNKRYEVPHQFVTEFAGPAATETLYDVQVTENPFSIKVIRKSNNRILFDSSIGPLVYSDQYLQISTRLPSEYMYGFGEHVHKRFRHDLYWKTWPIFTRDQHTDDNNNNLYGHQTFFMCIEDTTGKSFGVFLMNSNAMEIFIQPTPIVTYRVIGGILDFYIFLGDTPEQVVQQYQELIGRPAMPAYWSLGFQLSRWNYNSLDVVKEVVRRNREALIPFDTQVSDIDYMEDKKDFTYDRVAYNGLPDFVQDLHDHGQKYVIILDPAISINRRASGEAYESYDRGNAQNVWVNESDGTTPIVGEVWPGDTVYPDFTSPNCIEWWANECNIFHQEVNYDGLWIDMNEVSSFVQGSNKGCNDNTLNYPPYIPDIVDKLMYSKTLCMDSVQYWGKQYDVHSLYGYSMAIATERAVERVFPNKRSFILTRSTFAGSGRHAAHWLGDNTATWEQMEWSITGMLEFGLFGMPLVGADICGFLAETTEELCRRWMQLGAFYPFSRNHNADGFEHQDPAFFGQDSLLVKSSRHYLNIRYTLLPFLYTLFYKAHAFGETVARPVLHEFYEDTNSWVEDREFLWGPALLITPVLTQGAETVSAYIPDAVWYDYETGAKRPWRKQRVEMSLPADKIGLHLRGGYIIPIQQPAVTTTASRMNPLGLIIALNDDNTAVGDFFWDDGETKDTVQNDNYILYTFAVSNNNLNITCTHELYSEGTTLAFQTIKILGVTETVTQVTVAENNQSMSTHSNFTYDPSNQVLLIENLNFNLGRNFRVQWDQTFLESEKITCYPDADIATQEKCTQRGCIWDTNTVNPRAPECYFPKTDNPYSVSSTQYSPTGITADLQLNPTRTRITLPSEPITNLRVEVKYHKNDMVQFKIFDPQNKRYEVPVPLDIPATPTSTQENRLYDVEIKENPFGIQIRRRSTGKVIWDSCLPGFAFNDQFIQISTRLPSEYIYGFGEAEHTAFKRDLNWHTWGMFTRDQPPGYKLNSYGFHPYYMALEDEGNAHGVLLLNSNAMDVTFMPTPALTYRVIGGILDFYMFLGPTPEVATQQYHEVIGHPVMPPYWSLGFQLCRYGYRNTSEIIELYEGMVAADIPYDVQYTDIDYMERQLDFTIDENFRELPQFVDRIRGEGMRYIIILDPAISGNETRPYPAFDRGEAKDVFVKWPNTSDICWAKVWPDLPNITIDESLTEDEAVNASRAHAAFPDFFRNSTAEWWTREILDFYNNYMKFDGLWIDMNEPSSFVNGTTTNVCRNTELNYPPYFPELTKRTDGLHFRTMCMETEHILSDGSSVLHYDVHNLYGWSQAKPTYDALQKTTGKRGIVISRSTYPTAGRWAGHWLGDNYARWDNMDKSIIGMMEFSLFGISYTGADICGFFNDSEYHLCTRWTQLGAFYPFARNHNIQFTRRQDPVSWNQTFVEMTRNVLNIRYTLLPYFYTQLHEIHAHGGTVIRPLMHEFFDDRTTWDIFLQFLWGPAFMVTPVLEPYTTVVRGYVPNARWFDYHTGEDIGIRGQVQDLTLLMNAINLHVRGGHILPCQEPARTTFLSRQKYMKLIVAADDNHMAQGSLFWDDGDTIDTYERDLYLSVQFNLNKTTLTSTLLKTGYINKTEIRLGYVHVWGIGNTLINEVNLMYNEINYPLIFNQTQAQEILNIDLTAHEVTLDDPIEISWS

α-mannosidase = conditions: background statement; cited from earlier work

## OC[C@H]1[C@@H](O)[C@H](O)[C@H]2[C@@H](O)[C@@H](O)CN21 [3,7-diepi-casuarine (10), (1R,2R,3S,6S,7R,7aR)-3-(Hydroxymethyl)-1,2,6,7-tetrahydroxypyrrolizidine]
α-D-glucosidase [1]
  % inhibition gluc (Bacillus): −7%
Dendritic cells [2]
  IL-12 RELEASE: Yes
Naringinase
  % inhibition Naringinase: 6%
[3]; compound + L. major Ag
  IFN-γ: 5.5 ng/mL
[3]; treatment alone
  IFN-γ: ~0.5 ng/mL
[3]; result in words
  IFN-γ (healing Th1 response): enhances IFN-γ
[4]; Table 10.2, compound + αCD3
  IL-5: 150 pg/mL
[4]; result in words
  Th2 response (IL-5): suppressing the Th2 response (via downregulation of the Th2 cytokine IL-5)
Dendritic cells [5]; compound + LPS
  IL-2 (units/ml): 0.69 units/ml
Dendritic cells [5]; treatment alone
  IL-2 (units/ml): 0.00 units/ml
β-D-glucosidase
  % inhibition glucosidase: 5%
[6]
  inhibition of any of the enzymes tested: do not significantly inhibit any of the enzymes tested
Spleen cells; Table 3.1, treatment alone
  IFN-γ: 0.22 ng/mL
[7]
  % inhibition N-acetyl-β-gluc: −6%

## O[C@H]1[C@H](O)[C@@H](O)CN2CC[C@H](O)[C@H]12 [Castanospermine (20), Castanospermine, reference compound]
α-D-glucosidase [1]
  % inhibition gluc (Bacillus): 6%
[8]
  IC50: 8 µM
Dendritic cells [2]
  IL-12 RELEASE: No
[9]; initial rate, control 240
  Glucose uptake: 225 pmol/s/mg
[9]; result in words
  glucose transport: slightly inhibited
Naringinase
  % inhibition Naringinase: 39%
β-D-glucosidase
  % inhibition glucosidase: 88%
β-D-glucosidase; read-out: Ki with almond 6-D-glucosidase
  Ki: 9 µM
β-D-galactosidase
  % inhibition galactosidase: 16%
α-D-glucosidase [10]
  inhibition of yeast α-D-glucosidase: not being inhibitory
[11]
  inhibition of rabbit small intestine sucrase: inhibited
Spleen cells; Table 3.2, compound + αCD3
  IFN-γ: 9.0 ng/mL
Spleen cells; Table 3.2, treatment alone
  IFN-γ: <1.0 ng/mL
Spleen cells; result in words
  IFN-γ secretion/production in splenocytes: inhibits the production of this cytokine
[7]
  % inhibition N-acetyl-β-gluc: 16%

## O[C@H]1[C@H]2[C@H](O)CCCN2C[C@H]1O [Swainsonine (4), Swainsonine]
Dendritic cells [2]
  IL-12 RELEASE: No
Dendritic cells [2]; tested at 50 μg/ml
  IL-12 secretion: failed to induce IL-12 secretion
α-mannosidase
  inhibition of α-mannosidase: potent and specific inhibitor of α-mannosidase
